Results on one molecule are retold here after US12486245B2, “Sequential multi-step flash nanoprecipitation for the formation of nanoparticles with high core loadings” (The Trustees of Princeton University, priority 2019, dated 2025).

This data set is described as follows: Water solubility. It counts as physicochemical.

As for `CCCCOc1ccc(OCCCC)c2c1-c1nc3nc(nc4[nH]c([nH]c5nc(nc-2n1)-c1c(OCCCC)ccc(OCCCC)c1-5)c1c(OCCCC)ccc(OCCCC)c41)-c1c(OCCCC)ccc(OCCCC)c1-3` [762Pc, 1,4,8,11,15,18,22,25-Octabutoxy-29H,31H-phthalocyanine], the water solubility result is “negligible”.
